Test results reported in patent US10035830B2, “Method for treatment of GM1 gangliosidosis” (Korea Research Institute of Bioscience and Biotechnology, priority 2014, dated 2018).

What was measured:
GM1-NPCs = test: Gene expression pattern in GM1-NPCs treated with inflammasome inhibitor (microarray, qPCR); assay type: cell-based, human; conditions: for tendency of changed genes to recover to the normal gene expression pattern: GM1-NPCs treated with Z-YVAD-FMK (10 μM) or rhIL1RA (1 μg/ml), FIG. 31, 33
Description: Particularly, GM1-iPSCs were constructed by the same manner as described in Example 2 and the differentiation of GM1-NPCs was induced by the same manner as described in Example <4-1>. Then, RNA was extracted from GM1-fibroblasts, GM1-iPSCs, or GM1-NPCs by using RNAiso Plus (Takara, Japan) or RNeasy mini kit (Qiagen, USA) according to the manufacturer's protocol. Reverse transcription PCR (PT PCR) was performed using 1˜2 μg of the extracted RNA as a template with Superscript III (Invitrogen, USA) in order to synthesize cDNA of the cell genome. Upon completion of the RT-PCR, 10 μl of qPCR reaction mixture was prepared by mixing 0.2 μl of the reaction product above, 1 μM oligonucleotide primer, […] of FAST SYBR green master mix (Applied Biosystems, USA), and distilled water, which proceeded to qPCR using 7500 Fast Real-time PCR system (Applied Biosystems, USA). The expression of the control GAPDH gene was also confirmed by the same manner as described above to correct the expression level. Based on the expression level of GAPDH mRNA, the fold change of NESTIN, NCAM, PAX6, OTX2, or REX1 mRNA was calculated.
Particularly, GM1-iPSCs were constructed by the same manner as described in Example 2, and the differentiation of GM1-NPCs was induced therefrom by the same manner as described in Example <4-1>. Then, GM1-fibroblasts, GM1-iPSCs, and GM1-NPCs were obtained. Microarray was performed by using Low RNA input linear amplification kit, cRNA cleanup module, and Whole Human Genome Microarray 4×44K (Agilent Technology, USA) according to the manufacturer's protocol. The obtained microarray images were revised as signals corresponding to WT-fibroblasts, WT-iPSCs, and WT-NPCs.
Particularly, GM1-NPCs were differentiated according to the method described in Example <4-1>, and then treated with rhIL1RA or Z-YVAD-FMK by the same manner as described in Example <9-1>. Microarray was performed by the same manner as described in Example <7-1> in order to investigate the up- or down-regulation of the gene involved in inflammasome. […] WT-NPC was used as the normal control. As for the negative control, GM1-NPCs were treated with DMSO instead of rhIL1RA or Z-YVAD-FMK. The expression pattern (either up- or down regulation) and the mRNA expression level were investigated by the same manner as described above.

[1] = test system: GM1-NPCs originated neurosphere; test: Recovery of GM1-NPCs/neurosphere morphology by the inhibition of inflammasome (phase-contrast microscopy); assay type: cell-based, human; conditions: GM1-NPCs cultured with 1 μg/ml rhIL1RA or 10 μM Z-YVAD-FMK, 2~4 weeks; FIG. 30a
Description: To investigate the recovery of neural damage caused by the increased activation of inflammasome related metabolic pathway in GM1, GM1-NPCs were treated with the inflammasome inhibitors IL1β antagonist (rhIL1RA) and caspase-1 inhibitor (Z-YVAD-FMK), and then the morphology of GM1-NPCs was investigated.
Particularly, the differentiation of GM1-NPCs was induced by the same manner as described in Example <4-1>. Then, the induced GM1-NPCs were cultured in the culture medium respectively treated with 1 μg/ml rhIL1RA (R&D Systems, USA) or 10 μM Z-YVAD-FMK (Merck Millipore, Germany) in order to inhibit inflammasome therein. 2˜4 weeks later, the cultured GM1-NPCs originated neurosphere was obtained. The morphology of neurosphere was observed by phase-contrast microscopy.

[2] = GM1-NPCs treated with Z-YVAD-FMK (10 μM), FIG. 32

Molecule	tendency of changed genes to recover to the normal gene expression pattern (GM1-NPCs)	increase of the reduced B4GALNT expression (GM1-NPCs; [2])	reduction of GLB1 expression compared with that in GM1-NPCs (GM1-NPCs; [2])	oligo probe pairs displaying the changed expression pattern (GM1-NPCs; GM1-NPCs treated with Z-YVAD-FMK (10 μM), of total 27,375 oligo probe pairs, microarray, FIG. 31)	morphology of GM1-neurosphere [1]	genes displaying the changed expression pattern (GM1-NPCs; GM1-NPCs treated with rhIL1RA (1 μg/ml), FIG. 33)
COC(=O)C[C@H](NC(=O)[C@H](C)NC(=O)[C@@H](NC(=O)C(Cc1ccc(O)cc1)NC(=O)OCc1ccccc1)C(C)C)C(=O)CF (stereo partly drawn) [Z-YVAD-FMK, methyl(3S)-3-[(2S)-2-[(2S)-2-(2-{[(benzyloxy)carbonyl]amino}-3-(4-hydroxyphenyl)propanamido)-3-methylbutanamido]propanamido]-5-fluoro-4-oxopentanoate]	tendency to recover their gene expression patterns changed by GM1 mediated neural damage back to the normal pattern	2.6 fold	47%	9.3%	recovering the GM1 patient-specific cell morphology	
rhIL1RA: interleukin 1-receptor antagonist protein, SEQ. ID. NO: 2; cat #280-RA-050 (rhIL-1ra), R&D systems	tendency to recover the abnormal gene expression in GM1 cells to the normal expression pattern				recovering the GM1 patient-specific cell morphology	3.6%
